Test results published in ChEMBL document CHEMBL4354875, “Structural Basis for EGFR Mutant Inhibition by Trisubstituted Imidazole Inhibitors” (J Med Chem, 2020).

What was measured:
[1] = biological target: Epidermal growth factor receptor (Homo sapiens, UniProt P00533, L858R/T790M); assay: Inhibition of human EGFR L858R/T790M mutant using poly[Glu:Tyr] (4:1) as substrate measured in presence of [gamma-33P]ATP by radiometric assay
[2] = biological target: Epidermal growth factor receptor (Homo sapiens, UniProt P00533, C797S/L858R/T790M); assay: Inhibition of human EGFR L858R/T790M/C797S mutant using poly[Glu:Tyr] (4:1) as substrate measured in presence of [gamma-33P]ATP by radiometric assay
Sequence of Epidermal growth factor receptor (Homo sapiens, UniProt P00533, C797S/L858R/T790M) (P00533 25-1210 T790M/C797S/L858R limits assumed): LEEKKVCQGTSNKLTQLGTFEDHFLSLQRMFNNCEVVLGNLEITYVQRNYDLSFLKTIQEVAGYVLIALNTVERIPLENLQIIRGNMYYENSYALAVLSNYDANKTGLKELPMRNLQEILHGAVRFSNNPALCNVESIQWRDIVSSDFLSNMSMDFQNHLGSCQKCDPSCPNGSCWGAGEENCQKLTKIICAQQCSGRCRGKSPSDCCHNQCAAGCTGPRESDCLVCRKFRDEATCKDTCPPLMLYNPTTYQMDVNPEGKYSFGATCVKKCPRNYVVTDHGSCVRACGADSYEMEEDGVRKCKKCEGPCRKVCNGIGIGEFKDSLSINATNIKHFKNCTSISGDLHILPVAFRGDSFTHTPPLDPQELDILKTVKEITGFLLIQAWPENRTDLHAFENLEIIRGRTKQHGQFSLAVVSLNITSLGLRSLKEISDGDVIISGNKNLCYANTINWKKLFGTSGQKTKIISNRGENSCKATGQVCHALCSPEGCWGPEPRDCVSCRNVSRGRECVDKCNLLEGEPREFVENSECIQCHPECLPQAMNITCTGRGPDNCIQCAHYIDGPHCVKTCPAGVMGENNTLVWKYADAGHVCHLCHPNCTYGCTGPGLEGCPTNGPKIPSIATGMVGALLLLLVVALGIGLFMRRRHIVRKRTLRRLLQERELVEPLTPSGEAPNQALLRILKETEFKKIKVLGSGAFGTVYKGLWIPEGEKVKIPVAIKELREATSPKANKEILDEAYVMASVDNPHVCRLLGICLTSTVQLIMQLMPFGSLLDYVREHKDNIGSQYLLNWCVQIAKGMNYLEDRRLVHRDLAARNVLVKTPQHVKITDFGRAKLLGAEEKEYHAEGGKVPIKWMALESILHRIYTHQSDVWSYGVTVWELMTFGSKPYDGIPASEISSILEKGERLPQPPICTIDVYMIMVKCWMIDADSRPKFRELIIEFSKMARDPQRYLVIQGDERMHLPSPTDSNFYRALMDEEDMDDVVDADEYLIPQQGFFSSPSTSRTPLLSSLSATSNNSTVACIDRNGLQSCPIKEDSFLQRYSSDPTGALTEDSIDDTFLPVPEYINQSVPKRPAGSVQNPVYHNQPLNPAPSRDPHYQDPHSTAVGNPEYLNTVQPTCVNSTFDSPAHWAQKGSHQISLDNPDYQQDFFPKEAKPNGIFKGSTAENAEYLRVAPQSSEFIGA

Sequence of Epidermal growth factor receptor (Homo sapiens, UniProt P00533, L858R/T790M) (P00533 25-1210 T790M/L858R limits assumed): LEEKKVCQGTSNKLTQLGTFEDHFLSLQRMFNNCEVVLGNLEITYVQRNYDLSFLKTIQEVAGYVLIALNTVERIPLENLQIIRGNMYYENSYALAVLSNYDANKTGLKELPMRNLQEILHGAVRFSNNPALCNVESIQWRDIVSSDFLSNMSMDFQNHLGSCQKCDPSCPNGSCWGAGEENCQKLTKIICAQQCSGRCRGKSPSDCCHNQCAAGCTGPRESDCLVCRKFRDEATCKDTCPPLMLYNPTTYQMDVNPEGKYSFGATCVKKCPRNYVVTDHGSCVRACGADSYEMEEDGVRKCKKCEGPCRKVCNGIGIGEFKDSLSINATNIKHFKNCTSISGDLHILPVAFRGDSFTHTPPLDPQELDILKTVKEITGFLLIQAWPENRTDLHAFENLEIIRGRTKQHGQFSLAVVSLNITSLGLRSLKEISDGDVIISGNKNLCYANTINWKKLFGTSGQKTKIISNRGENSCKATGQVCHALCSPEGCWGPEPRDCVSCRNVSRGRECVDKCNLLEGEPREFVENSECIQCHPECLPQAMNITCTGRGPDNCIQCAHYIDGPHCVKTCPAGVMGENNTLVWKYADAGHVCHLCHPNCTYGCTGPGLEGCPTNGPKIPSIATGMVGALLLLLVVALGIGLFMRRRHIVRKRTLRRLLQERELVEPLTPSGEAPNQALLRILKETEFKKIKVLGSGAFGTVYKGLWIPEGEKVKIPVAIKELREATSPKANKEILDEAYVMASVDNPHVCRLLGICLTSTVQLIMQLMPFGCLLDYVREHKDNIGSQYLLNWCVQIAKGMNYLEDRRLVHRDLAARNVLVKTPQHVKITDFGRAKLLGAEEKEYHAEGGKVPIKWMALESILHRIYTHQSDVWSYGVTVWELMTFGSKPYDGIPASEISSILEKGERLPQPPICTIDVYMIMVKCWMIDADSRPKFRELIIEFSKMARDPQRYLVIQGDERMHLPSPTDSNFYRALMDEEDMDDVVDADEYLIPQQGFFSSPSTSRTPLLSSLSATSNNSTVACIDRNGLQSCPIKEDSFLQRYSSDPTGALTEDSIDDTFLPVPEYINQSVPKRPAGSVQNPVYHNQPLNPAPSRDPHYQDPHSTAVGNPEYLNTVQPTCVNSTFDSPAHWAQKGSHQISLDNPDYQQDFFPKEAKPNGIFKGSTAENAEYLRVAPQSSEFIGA

Row | IC50 [1] [nM] | IC50 [2] [nM] | SMILES
1 | 1 | > 5000 | C=CC(=O)Nc1ccc(OC)c(Nc2cc(-c3nc(SC)n(C)c3-c3ccc(F)cc3)ccn2)c1
2 | 111 | > 5000 | C=CC(=O)Nc1ccc(OC)c(Nc2cc(-c3c(-c4ccc(F)cc4)nc(SC)n3C)ccn2)c1
